Test results: patent publication US20190352341A1, “MODIFIED PEPTIDES AND THEIR USE FOR TREATING SYSTEMIC LUPUS ERYTHEMATOSUS” (IMMUPHARMA FRANCE SA, priority 2018, published 2019)
Numbered stars: 1 amine (or outer) side, 2 acyl side, 3 side chain; on linkers, the order of the positions; unused ones are H or OH. Square brackets hold non-standard residues; d marks the D form. Peptide text beside a SMILES is read from it. ξ: configuration not given here. X1 = CSCC[C@H](NC(=N)[C@H](Cc1c[nH]cn1)N[*:1])C(=O)[*:2]; pS = N[C@@H](COP(=O)(O)O)C(=O)O; Ile(3ξ) = CCC(C)[C@H](N)C(=O)O

Tests used:
Lewis rats = experiment: Chronic-EAN rat model for CIDP; format: in vivo; details: P140 100 μg/rat i.p., vs untreated rats
Method: Male Lewis rats, 7-8 weeks old, weighing 250-270 g, purchased from Charles River (Domaine des Oncins, L'Arbresle, France) were used. To induce chronic-EAN (CIDP), rats were immunized with S-palm-P0(180-199) peptide by subcutaneous injection at the base of the tail of 200 μL of an inoculum containing 200 μg of peptide (Ac(palm)KRGRQTPVLYAMLDHSRS), and 0.5 mg of Mycobacterium tuberculosis (strain H37 RA, Difco, Detroit, Mich., USA) emulsified in 100 μL of saline solution and 100 μL of Freund's incomplete adjuvant (SIGMA-Aldrich, St-Quentin Fallavier, France).
Body weight and clinical scores are assessed daily until 60 days post-immunization (dpi). Severity of paresis is graded as follows: 0=no illness; 1=flaccid tail; 2=moderate paraparesis; 3=severe paraparesis; 4=tetraparesis; 5=death.
100 μg/rat P140 peptide in 500 μL water/saline (1:10) were intraperitoneally injected at 5, 7, 9, 13 dpi and 3 times per week from 22 dpi until the end of the study.

C57BL/6 mice = experiment: DSS-induced mouse model of colonic inflammation; format: in vivo
Text: Normal mice (C57BL/6; 7 week-old; males) have received the P140 peptide ([…], iv route; 10 mice) or saline only (control group; 10 mice) at days −2 and −1. At day 0, dextran sodium sulfate (DSS; 2-3%) was administrated to induce the disease.
Animals were examined every day for body weight loss, stool consistency, diarrhea, and blood in the feces. The animals were sacrificed around day 14 or at any time if they are very sick (loss >25% body weight). Statistics: Mann-Whitney (exact)

MRL/lpr mice = experiment: Survival analysis in MRL/lpr mice; format: in vivo, mouse; details: female MRL/lpr mice, peptide intravenously from five weeks of age; NaCl control 25 weeks
Method: It has been determined that this mouse strain carries a mutation in the fas gene. Also, the MRL/lpr is a useful model to study behavioural and cognitive deficits found in autoimmune diseases and the efficacy of immunosuppressive agents [Monneaux et al., 2003, Eur. J. Immunol. 33, 287-296].
Five-week-old female MRL/lpr mice received P140 or peptide P140(MO) intravenously as described (Monneaux et al., 2003, Eur. J. Immunol. 33, 287-296). All experimental protocols were carried out with the approval of the local Institutional Animal Care and Use Committee (CREMEAS). As control, mice were injected with NaCl.
Twenty mice were used for each peptide or NaCl.
Statistical tests were performed using GraphPad Prism version 5.0. The two-way ANOVA test was used to analyze statistical significance of proteinuria differences between control and peptide-treated groups of mice. Survival of control and P140 analogue-treated female MRL/lpr mice was analyzed by the Kaplan-Meier method, and the significance of differences was determined by the log-rank test. For the other variables, statistical significance was assessed using the Student's t-test. p values less than 0.05 were considered significant.

HSC70 protein = biological target: T1, HSC70 protein (Bos taurus, UniProt P19120); experiment: Affinity of the peptides for HSC70 protein (BIAcore); format: binding, bovine
T1 construct: purchased Stressgen
Method: BIAcore 3000 system (Biacore AB) was used to evaluate the binding of P140 peptides to HSC70 protein (Page et al., 2009, and 2011). Sensor chip CMS, surfactant P20, amine coupling kit containing N-hydroxysuccinimide (NHS) and N-ethyl-N′-dimethylaminopropyl carbodiimide (EDC), 2-(2-pyridinyldithio)ethaneamine (PDEA) and ethanolamine were from Biacore AB. Biosensor assays were performed with HBS-EP buffer as running buffer (10 mM HEPES, 150 mM NaCl, 3 mM EDTA, 0.005% surfactant P20, pH 7.4). The compounds were diluted in the running buffer. The sensor chip surface was regenerated after each experiment by injecting 10 μL of 10 mM HCl. Recombinant bovine HSC70 (Stressgen) was immobilized on flow cells of a CM5 sensor chip through its thiol groups using 35 μL PDEA in 50 mM borate buffer, pH 8.3 on the NHS/EDC-activated matrix. Then, 35 μL of HSC70 (100 μg/mL in formate buffer, pH 4.3) were injected until a response of 13,000 response units (RU) corresponding to 13 ng/mm^2 of HSC70 was immobilized. Twenty μL of a 50 mM cysteine/1 M NaCl solution was used to saturate unoccupied sites on the chip. The direct binding measurement of P140 peptides to HSC70 was carried out at 25° C. with a constant flow rate of 20 μL/min. P140 peptide and analogues were injected in the flux at different concentrations for 3 min, followed by a dissociation phase of 3 min. The kinetic parameters were calculated using the BIAeval 3.1 software on a personal computer. Analysis was performed using the simple 1:1 Langmuir binding model. The specific binding profiles were obtained after subtracting the response signal from the control empty channel and from blank-buffer injection. The fitting to each model was judged by the χ^2 value and randomness of residue distribution compared to the theoretical model.

[1] = P140 iv at days −2 and −1, DSS from day 0, vs saline group
[2] = BIAcore, 25° C., 1:1 Langmuir model, global fit

T1 sequence (P19120 whole entry): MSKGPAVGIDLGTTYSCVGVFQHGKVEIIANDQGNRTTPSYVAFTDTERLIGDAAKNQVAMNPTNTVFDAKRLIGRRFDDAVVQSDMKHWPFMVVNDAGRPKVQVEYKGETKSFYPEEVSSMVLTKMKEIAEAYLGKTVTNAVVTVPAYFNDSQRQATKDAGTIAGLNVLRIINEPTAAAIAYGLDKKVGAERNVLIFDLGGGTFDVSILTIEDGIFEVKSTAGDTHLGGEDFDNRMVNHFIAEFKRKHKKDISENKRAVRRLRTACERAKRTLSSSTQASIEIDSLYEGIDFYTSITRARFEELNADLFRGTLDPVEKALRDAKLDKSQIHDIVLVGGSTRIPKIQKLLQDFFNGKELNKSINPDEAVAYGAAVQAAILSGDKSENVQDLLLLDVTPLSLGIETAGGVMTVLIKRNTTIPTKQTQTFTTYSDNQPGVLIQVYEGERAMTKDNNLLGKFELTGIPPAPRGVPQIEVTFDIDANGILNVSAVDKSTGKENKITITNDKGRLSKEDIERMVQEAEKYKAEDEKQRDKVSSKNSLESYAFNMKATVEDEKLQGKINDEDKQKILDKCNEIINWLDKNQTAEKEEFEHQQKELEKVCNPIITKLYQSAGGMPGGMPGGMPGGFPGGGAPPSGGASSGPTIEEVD

Which results are given for `CCC(C)[C@H](NC(=O)[C@H](Cc1ccccc1)NC(=O)[C@H](C)NC(=O)[C@H](Cc1ccc(O)cc1)NC(=O)CNC(=O)[C@H](CCCNC(=N)N)NC(=O)[C@@H]1CCCN1C(=O)[C@H](CCCCN)NC(=O)CNC(=O)[C@H](COP(=O)(O)O)NC(=O)[C@H](CCCNC(=N)N)NC(=O)[C@H](CCCCN)NC(=O)[C@H](CO)NC(=O)[C@H](Cc1ccc(O)cc1)NC(=O)[C@@H](NC(=O)[C@H](CCSC)NC(=N)[C@H](Cc1c[nH]cn1)NC(=O)[C@@H](NC(=O)[C@@H](N)CCCNC(=N)N)C(C)CC)C(C)C)C(=O)N[C@@H](CCC(=O)O)C(=O)N[C@@H](Cc1ccc(O)cc1)C(=O)O` (stereo partly shown) [Compound P140] (H-R[Ile(3ξ)][X1]VYSKR[pS]GKPRGYAF[Ile(3ξ)]EY-OH)?
Chronicity of the disease (Lewis rats): seems abolish the chronicity of the disease; Maximal clinical scores (Lewis rats): decreased the maximal clinical scores; Onset of the disease (Lewis rats): delayed the onset of the disease; Weight loss during the disease course (Lewis rats): less important; Body weight (C57BL/6 mice; [1]): No difference; Colon size (C57BL/6 mice; [1]): significant increase; DAI (disease activity index) (C57BL/6 mice; [1]): Little difference; Day at which blood appeared in the feces (C57BL/6 mice; control groups day +6): +8 day; Median survival of mice (MRL/lpr mice): 29 weeks; Rmax (HSC70 protein; BIAcore, 25° C., 1:1 Langmuir model): 83.3 RU; KA (HSC70 protein; [2]): 144000 M⁻¹; kd (HSC70 protein; [2]): 0.00312 s⁻¹; kon (HSC70 protein; BIAcore, 25° C., 1:1 Langmuir model, global fit, read-out: ka): 450 M⁻¹ s⁻¹; RI (HSC70 protein; peptide 1.56 μM): 12.1 RU; Req (HSC70 protein; peptide 1.56 μM): 15.3 RU; kobs (HSC70 protein; peptide 1.56 μM): 0.00382 s⁻¹; RI (HSC70 protein; peptide 3.12 μM): 20.9 RU; Req (HSC70 protein; peptide 3.12 μM): 25.8 RU; kobs (HSC70 protein; peptide 3.12 μM): 0.00452 s⁻¹; RI (HSC70 protein; peptide 6.25 μM): 33.8 RU; Req (HSC70 protein; peptide 6.25 μM): 39.5 RU; kobs (HSC70 protein; peptide 6.25 μM): 0.00593 s⁻¹; RI (HSC70 protein; peptide 12.5 μM): 62.5 RU; Req (HSC70 protein; peptide 12.5 μM): 53.6 RU; kobs (HSC70 protein; peptide 12.5 μM): 0.00874 s⁻¹; RI (HSC70 protein; peptide 25 μM): 118 RU; Req (HSC70 protein; peptide 25 μM): 65.2 RU; kobs (HSC70 protein; peptide 25 μM): 0.0144 s⁻¹
